Reference: patent US20040009904A1, “APL immunoreactive peptides, conjugates thereof and methods of treatment for aPL antibody-mediated pathologies” (priority 1995, published 2004)
Bridge positions count the residues as written; N and C are the ends. Peptide text beside a SMILES is read from it. * marks the point of attachment. FITC = O=C1OC2(c3ccc(O)cc3Oc3cc(O)ccc32)c2ccc(NC(=S)*)cc21

Tests used:
[1] = test system: affinity-purified ACA-6501 aPL antibody; assay: Resin-bound peptide binding of affinity-purified IgG aPL antibody; parameters: species or system human; conditions: immunoconjugate color reaction, versus unrelated control peptide and normal IgG
Text: Phage sequences obtained with affinity-purified ACA-6501 and found to be phage-ELISA-positive were synthesized on a solid support recently developed for combinatorial synthetic peptide libraries. This support, a Rapp resin, has a high peptide density and uses a hydrophilic polyethylene glycol spacer before the first amino acid is coupled. […] Similar results were obtained with the other phage-ELISA-positive peptides tested. In the experiment shown, resin peptide-bound affinity-purified ACA-6501 aPL antibody was detected by an immunoconjugate color reaction.

aPL sera = assay: Resin-bound peptide binding survey of patient sera; parameters: species or system human
Text: Two peptides were selected for aPL sera testing, one (5A12) representing the ACA-6501 screen and another one (4D3) representing the ACA-6626 screen. […] However, a significant degree of crossreactivity was detectable especially between ACA-6501 and ACA-6626.

ACA-6501 [2] = assay: Phage-ELISA; type: binding, human; conditions: phage clones coated on wells, affACA-6501 2.5 μg/mL
Experimental: This method of selecting phage requires very tight binding of the insert to the screening antibody. Phage are directly coated onto wells of a microtitration plate and incubated with the screening antibody. Following washes to remove unbound antibody, an anti-human IgG alkaline phosphatase conjugate is added to bind any aPL antibodies bound to the phage. APL antibodies are then detected by adding a calorimetric substrate to the well which will react with alkaline phosphatase according to methods well known in the art.
Three mL cultures were prepared from 35 clones previously isolated with affinity purified ACA-6501 in several phage library screens as well as one fUSE 2 phage clone lacking a peptide insert which was used as a control. After centrifugation for 3 minutes at 17,000×g, 100 μL from each phage supernatant (adjusted to −2×10^11 particles/mL, based on absorbance) was added to microtitration plate wells (Falcon, Becton-Dickinson Labware, Lincoln Park, N.Y.) and allowed to incubate overnight at 4° C. Following four washes with TBS 7.4, the plate was blocked with 125 μL of 0.5% BSA/TBS for 1 hour at RT. After another four TBS washes, 100 μL of affACA-6501 previously diluted to 2.5 μg/mL in TBS/BSA was added to each well and allowed to incubate 1 hour at 37° C. Following an additional four washes, 100 μL anti-human IgG diluted 1:1000 in TBS/0.5% Tween was added to each well. After 1 hour at RT, enzyme substrate was added and the incubation allowed to proceed for 2 hours. Following the addition of 50 μL 0.2 M Na2HPO4 to stop the reaction, absorbance was measured at 550 nm in the automated plate absorbance reader. […] The sequences for these clones are showvn in Table 2.

ACA-6501 [3] = assay: Direct binding fluorescence polarization binding assay (dbFP); parameters: species or system human
Text: (§1) This assay detects direct binding of the peptide to aPL antibody. Since aPL antibodies bind to β2-GPI (the antigen), the ELISA competitive inhibition assay can show inhibition due to binding to β2-GPI as well inhibition due to binding of the peptide to the aPL antibody. Because binding to antibodies is required in order for the peptide to function as a Toleragen, it is essential to establish that a peptide can directly bind to an aPL antibody. This assay is used to determine the dissociation constants for peptides that bind to two aPL antibodies, ACA-6501 and ACA-6701. While the ELISA assay is useful for high throughput screening because it requires less antibody than the Fluorescence Polarization assay, however, ELISA-positive peptides should be further evaluated by the Fluorescence Polarization assay to determine whether they are capable of directly binding with aPL antibody.
The methodology is described in PanVera Application Guide (1994), PanVera Corporation. Briefly, a trace amount of fluorescein isothiocyanate (FITC) labeled peptide (CB2*-F) is titrated with antibody (ACA 6501 or 6701) and the polarization for the sample is plotted versus the antibody concentration. Polarization was measured with the PanVera Beacon instrument. Data were fitted to Equation 1. [formula] […]

ACA-6701 = assay: Direct binding fluorescence polarization binding assay (dbFP) and displacement kinetics; parameters: species or system human; conditions: for Kd: dbFP
Text: as §1
The methodology is described in PanVera Application Guide (1994), PanVera Corporation. Briefly, a trace amount of fluorescein isothiocyanate (FITC) labeled peptide (CB2*-F) is titrated with antibody (ACA 6501 or 6701) and the polarization for the sample is plotted versus the antibody concentration. Polarization was measured with the PanVera Beacon instrument. Data were fitted to Equation 1. [formula]
where Y is the Y-axis value (milli-polarization units, mP), R is the total concentration of antibody receptor, PL is the polarization for free FITC-labeled peptide (F), and PH is the polarization for F complexed with R (FR). KD is the dissociation constant (reciprocal binding, constant) for F from the FR complex. For these equations to be valid, it must be true that F<<R. This titration is shown in FIGS. 22 and 23 for CB2*-F binding to ACA-6701 and ACA-6501 antibodies, respectively. […] Thus, CB2*-F binding to ACA-6701 is limited only by diffusion of these two molecules together.

| Kd (ACA-6501 [3]; dbFP titration of FIG. 24, from Equation 1, not corrected for antibody bivalency) [nM] | Kd (ACA-6501 [3]; dbFP, multiplied by 2 to correct for antibody bivalency) [nM] | Kd (ACA-6701; from Equation 1, not corrected for antibody bivalency) [nM] | Kd (ACA-6701; multiplied by 2 to correct for antibody bivalency) [nM] | dissociation rate constant Koff (ACA-6701; displacement of CB2*-F from 6701 by slight excess of CB2*) [s⁻¹] | association rate constant Kon (ACA-6701; from KD and Koff, after correcting for antibody bivalency) [M⁻¹ s⁻¹] | Compound | binding of affinity-purified ACA-6501 to resin-bound peptide [1] | pathologic sera (moderate to high GPL) with detectable peptide binding (aPL sera; 13 pathologic sera) | control sera (low or no GPL score) with low peptide binding (aPL sera; 19 patient sera) | signal in the phage-ELISA (ACA-6501 [2]) |
| --- | --- | --- | --- | --- | --- | --- | --- | --- | --- | --- |
|  |  |  |  |  |  | CC[C@H](C)[C@@H]1NC(=O)[C@H](CC(C)C)NC(=O)[C@@H](NC(=O)[C@@H]2CCCN2C(=O)CNC(=O)[C@H](C)N)CSSC[C@@H](C(=O)N2CCC[C@H]2C(=O)NCC(=O)O)NC(=O)[C@H](CCCNC(=N)N)NC(=O)[C@H](CC(=O)O)NC(=O)[C@@H]2CCCN2C(=O)[C@H](C)NC(=O)[C@H](CC(C)C)NC1=O [5A12, CLILAPDRC] | dramatically outperformed an unrelated control peptide while not binding normal IgG | 8 of the 13 | 2 out of 19 | significant signals |
| 241 | 482 | 256 | 512 | 0.0184 | 36000 | CC[C@H](C)[C@@H]1NC(=O)[C@@H](NC(=O)[C@@H]2CCCN2C(=O)CNC(=S)Nc2ccc3c(c2)C(=O)OC32c3ccc(O)cc3Oc3cc(O)ccc32)CSSC[C@@H](C(=O)NCC(=O)O)NC(=O)[C@H](CCCNC(=N)N)NC(=O)[C@H](CC(=O)O)NC(=O)[C@H](CCCNC(=N)N)NC(=O)[C@H](C)NC(=O)[C@H](CC(C)C)NC(=O)[C@H](CC(C)C)NC1=O [CB2*-F, FITC-GPCILLARDRCG] ({FITC}-GPCILLARDRCG-OH; disulfide 3-11) |  |  |  |  |
